According to EPA's ToxRefDB 2:

Tests used:
mouse [1] = settings: Multigenerational reproductive toxicity study, cd1, Oral, Feed, dose end: 1 generation
rat [2] = settings: Subchronic oral toxicity in rodents, fischer, Feed, dose end: 13 week, group: systemic
rat [3] = settings: Subchronic oral toxicity in rodents, fischer, Feed, dose end: 13 week, group: systemic; remark: listed apart in the source
mouse [4] = settings: Subchronic oral toxicity in rodents, b6c3f1, Feed, dose end: 13 week, group: systemic
rat [5] = settings: Carcinogenicity, sprague dawley, Oral, Gavage/Intubation, dose end: 105 week, group: systemic
rabbit = settings: Subchronic dermal toxicity, new zealand white, Topical, dose end: 13 week, group: systemic, systemic / in life observation / clinical signs / desquamation + systemic / in life observation / clinical signs / erythema + systemic / in …
[6] = group: offspring, systemic / in life observation / body weight / offspring (pup) weight + systemic / in life observation / body weight / offspring (pup) …
[7] = group: parental, systemic / in life observation / body weight / body weight + systemic / in life observation / mortality / mortality + systemic / in life …
[8] = group: reproductive, reproductive / offspring survival early / birth index / live birth index
[9] = systemic / pathology microscopic / kidney / cytoplasmic alteration + systemic / pathology microscopic / kidney / dilatation + systemic / …
[10] = systemic / pathology microscopic / kidney / regeneration + systemic / urinalysis / aspartate aminotransferase (ast/sgot) / aspartate …
[11] = systemic / pathology microscopic / kidney / dilatation + systemic / pathology microscopic / kidney / hyaline droplet + systemic / pathology …
[12] = systemic / pathology microscopic / kidney / regeneration + systemic / clinical chemistry / thyroxine (t4) / thyroxine (t4), free + systemic…
[13] = systemic / clinical chemistry / alanine aminotransferase (alt/sgpt) / alanine aminotransferase (alt/sgpt) + systemic / clinical chemistry / …
[14] = systemic / in life observation / body weight / body weight + systemic / organ weight / liver / absolute
[15] = systemic / clinical chemistry / [other] / [other] + systemic / clinical chemistry / thyroxine (t4) / thyroxine (t4), total + systemic / …
[16] = systemic / clinical chemistry / [other] / [other] + systemic / organ weight / liver / relative to body weight + systemic / clinical …

## Clc1cc(Cl)c(Cl)cc1Cl [1,2,4,5-Tetrachlorobenzene]
Mouse [1]; [6]
  LEL: 100 mg/kg/day
  LOAEL: > 250 mg/kg/day
  NEL: 40 mg/kg/day
  NOAEL: ≥ 250 mg/kg/day
Mouse [1]; group: parental, systemic / in life observation / body weight / body weight + systemic / in life observation / mortality / mortality
  NEL: 40 mg/kg/day
Mouse [1]; [7]
  LOAEL: > 250 mg/kg/day
  NOAEL: ≥ 250 mg/kg/day
Mouse [1]; group: parental, systemic / in life observation / body weight / body weight + systemic / organ weight / testes / absolute
  LEL: 100 mg/kg/day
Mouse [1]; [8]
  LEL: 100 mg/kg/day
  LOAEL: > 250 mg/kg/day
  NEL: 40 mg/kg/day
  NOAEL: ≥ 250 mg/kg/day
Rat [2]; [9]
  LOAEL: 7.1 mg/kg/day
  NOAEL: 2.1 mg/kg/day
Rat [2]; [10]
  LEL: 2.1 mg/kg/day
  NEL: < 2.1 mg/kg/day
Rat [3]; [11]
  LOAEL: 7.1 mg/kg/day
  NOAEL: 2.1 mg/kg/day
Rat [3]; [12]
  LEL: 2.1 mg/kg/day
  NEL: < 2.1 mg/kg/day
Mouse [4]; [13]
  LOAEL: > 450 mg/kg/day
  NOAEL: ≥ 450 mg/kg/day
Mouse [4]; [14]
  LEL: 4 mg/kg/day
  NEL: < 4 mg/kg/day

## Clc1cc2oc3c(Cl)c(Cl)c(Cl)cc3c2cc1Cl [2,3,4,7,8-Pentachlorodibenzofuran]
Rat [5]; [15]
  LOAEL: > 0.0002 mg/kg/day
  NOAEL: ≥ 0.0002 mg/kg/day
Rat [5]; [16]
  LEL: 6e-06 mg/kg/day
  NEL: < 6e-06 mg/kg/day

## CC(=O)O.CC(=O)O.NC(=NCCCCCCN=C(N)/N=C(\N)Nc1ccc(Cl)cc1)/N=C(\N)Nc1ccc(Cl)cc1 [Chlorhexidine diacetate]
rabbit
  LEL: 250 mg/kg/day
  LOAEL: 250 mg/kg/day
  NEL: < 250 mg/kg/day
  NOAEL: < 250 mg/kg/day
